# Results taken from article PMC5218480 (PLoS ONE, 2017).
# Test system: MV-4-11 cells
# Assay: Gene expression microarray analysis (Affymetrix PrimeView) and GSEA
# Assay type: cell-based, human
# Parameters: RFU PODN (11730768_x_at) / Fold change /veh PODN (11730768_x_at) / RFU LINC00158 (11744669_a_at) / Fold change /veh LINC00158 (11744669_a_at) / RFU DUSP10 (11751237_a_at) / Fold change /veh DUSP10 (11751237_a_at) / RFU ID3 (11757404_x_at) / Fold change /veh ID3 (11757404_x_at) / RFU PLEKHG5 (11737974_s_at) / Fold change /veh PLEKHG5 (11737974_s_at) / RFU LRRC4B (11730491_at) / Fold change /veh LRRC4B (11730491_at) / RFU GIMAP4 (11747438_a_at) / Fold change /veh GIMAP4 (11747438_a_at) / RFU KRT8 (11758183_x_at) / Fold change /veh KRT8 (11758183_x_at) / RFU CNN1 (11734310_a_at) / Fold change /veh CNN1 (11734310_a_at) / RFU VPS37D (11726825_at) / Fold change /veh VPS37D (11726825_at) / RFU C10orf10 (11716522_x_at) / Fold change /veh C10orf10 (11716522_x_at) / RFU KIR2DL2 /// KIR2DL4 /// KIR2DL5A /// KIR2DL5B /// KIR2DS1 /// KIR2DS2 /// KIR2DS3 /// KIR2DS4 /// KIR3DL3 /// KIR3DL3 /// KIR3DS1 (11738374_at) / Fold change /veh KIR2DL2 /// KIR2DL4 /// KIR2DL5A /// KIR2DL5B /// KIR2DS1 /// KIR2DS2 /// KIR2DS3 /// KIR2DS4 /// KIR3DL3 /// KIR3DL3 /// KIR3DS1 (11738374_at) / RFU C1QL1 (11718748_at) / Fold change /veh C1QL1 (11718748_at) / RFU TMPRSS4 (11747572_a_at) / Fold change /veh TMPRSS4 (11747572_a_at) / RFU HAMP (11756126_x_at) / Fold change /veh HAMP (11756126_x_at) / RFU RNFT2 (11725882_a_at) / Fold change /veh RNFT2 (11725882_a_at) / RFU NR4A2 (11747474_a_at) / Fold change /veh NR4A2 (11747474_a_at) / RFU ABCC12 (11746883_a_at) / Fold change /veh ABCC12 (11746883_a_at) / RFU TMEM136 (11760407_x_at) / Fold change /veh TMEM136 (11760407_x_at) / RFU CLDN22 /// WWC2 (11732394_at) / Fold change /veh CLDN22 /// WWC2 (11732394_at) / RFU HLA-DPB1 (11760878_x_at) / Fold change /veh HLA-DPB1 (11760878_x_at) / RFU SPINT1 (11716480_a_at) / Fold change /veh SPINT1 (11716480_a_at) / RFU GAP43 (11754022_s_at) / Fold change /veh GAP43 (11754022_s_at) / RFU A4GNT (11735810_at) / Fold change /veh A4GNT (11735810_at) / RFU PRB3 (11715151_x_at) / Fold change /veh PRB3 (11715151_x_at) / RFU TUBB4B (11761932_at) / Fold change /veh TUBB4B (11761932_at) / RFU CAPN14 (11732068_a_at) / Fold change /veh CAPN14 (11732068_a_at) / RFU TMCC2 (11721928_a_at) / Fold change /veh TMCC2 (11721928_a_at) / RFU IRGQ (11745062_a_at) / Fold change /veh IRGQ (11745062_a_at) / RFU FAM174B (11720279_a_at) / Fold change /veh FAM174B (11720279_a_at) / RFU TMPRSS4 (11748680_a_at) / Fold change /veh TMPRSS4 (11748680_a_at) / RFU FAM212B (11763350_a_at) / Fold change /veh FAM212B (11763350_a_at) / RFU PLEKHG5 (11743358_a_at) / Fold change /veh PLEKHG5 (11743358_a_at) / RFU ZSCAN30 (11745921_a_at) / Fold change /veh ZSCAN30 (11745921_a_at) / RFU CMKLR1 (11741424_a_at) / Fold change /veh CMKLR1 (11741424_a_at) / RFU LOC101060620 /// MAPK8IP1 (11723275_at) / Fold change /veh LOC101060620 /// MAPK8IP1 (11723275_at) / RFU SPTSSB (11747773_x_at) / Fold change /veh SPTSSB (11747773_x_at) / RFU PRSS12 (11739890_at) / Fold change /veh PRSS12 (11739890_at) / RFU BIN1 (11741810_x_at) / Fold change /veh BIN1 (11741810_x_at) / RFU WNT11 (11732464_a_at) / Fold change /veh WNT11 (11732464_a_at) / RFU C10orf10 (11716521_a_at) / Fold change /veh C10orf10 (11716521_a_at) / RFU C5orf56 (11738089_at) / Fold change /veh C5orf56 (11738089_at) / RFU CYB561 (11721691_x_at) / Fold change /veh CYB561 (11721691_x_at) / RFU ANKRD19P (11752326_a_at) / Fold change /veh ANKRD19P (11752326_a_at) / RFU OR2T12 /// OR2T33 /// OR2T8 (11738714_s_at) / Fold change /veh OR2T12 /// OR2T33 /// OR2T8 (11738714_s_at) / RFU VCAN (11748164_a_at) / Fold change /veh VCAN (11748164_a_at) / RFU JSRP1 (11732532_at) / Fold change /veh JSRP1 (11732532_at) / RFU KRTAP10-11 (11738290_x_at) / Fold change /veh KRTAP10-11 (11738290_x_at) / RFU MYO3A (11730013_a_at) / Fold change /veh MYO3A (11730013_a_at) / RFU EBF3 (11725865_a_at) / Fold change /veh EBF3 (11725865_a_at) / RFU CAMK2N1 (11719241_x_at) / Fold change /veh CAMK2N1 (11719241_x_at) / RFU C5orf56 (11738088_a_at) / Fold change /veh C5orf56 (11738088_a_at) / RFU OLFML3 (11715873_a_at) / Fold change /veh OLFML3 (11715873_a_at) / RFU LOC100653217 /// NTM (11731650_a_at) / Fold change /veh LOC100653217 /// NTM (11731650_a_at) / RFU MAPK11 (11762145_a_at) / Fold change /veh MAPK11 (11762145_a_at) / RFU FIZ1 (11724087_x_at) / Fold change /veh FIZ1 (11724087_x_at) / RFU OASL (11726364_x_at) / Fold change /veh OASL (11726364_x_at) / RFU SOX15 (11748057_x_at) / Fold change /veh SOX15 (11748057_x_at) / RFU CD79A (11719716_a_at) / Fold change /veh CD79A (11719716_a_at) / RFU HIST1H1D (11736915_at) / Fold change /veh HIST1H1D (11736915_at) / RFU CASKIN2 (11723855_a_at) / Fold change /veh CASKIN2 (11723855_a_at) / RFU LOC730098 (11760151_x_at) / Fold change /veh LOC730098 (11760151_x_at) / RFU OR4N2 (11742367_at) / Fold change /veh OR4N2 (11742367_at) / RFU PRRT2 (11749266_a_at) / Fold change /veh PRRT2 (11749266_a_at) / RFU SNX32 (11753110_a_at) / Fold change /veh SNX32 (11753110_a_at) / RFU CDHR5 (11726645_a_at) / Fold change /veh CDHR5 (11726645_a_at) / RFU RCAN1 (11760418_a_at) / Fold change /veh RCAN1 (11760418_a_at) / RFU FAM167A (11723789_a_at) / Fold change /veh FAM167A (11723789_a_at) / RFU FAM26E (11764081_at) / Fold change /veh FAM26E (11764081_at) / RFU ISYNA1 (11749810_s_at) / Fold change /veh ISYNA1 (11749810_s_at) / RFU ACY1 (11761880_at) / Fold change /veh ACY1 (11761880_at) / RFU 11764098_at / Fold change /veh 11764098_at / RFU SAMD14 (11745864_x_at) / Fold change /veh SAMD14 (11745864_x_at) / RFU NPB (11741838_a_at) / Fold change /veh NPB (11741838_a_at) / RFU TMPRSS6 (11731388_a_at) / Fold change /veh TMPRSS6 (11731388_a_at) / RFU KRTAP10-2 (11738614_at) / Fold change /veh KRTAP10-2 (11738614_at) / RFU ARHGAP8 /// PRR5-ARHGAP8 (11727945_x_at) / Fold change /veh ARHGAP8 /// PRR5-ARHGAP8 (11727945_x_at) / RFU KRTAP5-7 /// NADSYN1 (11734609_at) / Fold change /veh KRTAP5-7 /// NADSYN1 (11734609_at) / RFU RASL12 (11751679_a_at) / Fold change /veh RASL12 (11751679_a_at) / RFU CDKN2B (11736163_a_at) / Fold change /veh CDKN2B (11736163_a_at) / RFU PRF1 (11729649_at) / Fold change /veh PRF1 (11729649_at) / RFU, ZNF638 /// ZNF638-IT1 / Fold change vs veh, ZNF638 /// ZNF638-IT1 / RFU, PANK3 / Fold change vs veh, PANK3 / RFU, SH3YL1 / Fold change vs veh, SH3YL1 / RFU, ZEB2 / Fold change vs veh, ZEB2 / RFU, NRIP1 / Fold change vs veh, NRIP1 / RFU, PTTG1IP / Fold change vs veh, PTTG1IP / RFU, CAPN2 / Fold change vs veh, CAPN2 / RFU, MED14 / Fold change vs veh, MED14 / RFU, SNORA58 / Fold change vs veh, SNORA58 / RFU, C1orf63 / Fold change vs veh, C1orf63 / RFU, LRRFIP1 / Fold change vs veh, LRRFIP1 / RFU, NDUFAF7 / Fold change vs veh, NDUFAF7 / RFU, SLC12A2 / Fold change vs veh, SLC12A2 / RFU, IBTK / Fold change vs veh, IBTK / RFU, ESF1 / Fold change vs veh, ESF1 / Fold change vs veh, TMEM50B / RFU, TAOK1 / Fold change vs veh, TAOK1 / RFU, ACBD3 / Fold change vs veh, ACBD3 / RFU, TMA16 / Fold change vs veh, TMA16 / RFU, RWDD3 / Fold change vs veh, RWDD3 / RFU, BCAT1 / Fold change vs veh, BCAT1 / RFU, EDEM3 / Fold change vs veh, EDEM3 / RFU, TMEM33 / Fold change vs veh, TMEM33 / RFU, WDR75 / Fold change vs veh, WDR75 / RFU, AHCTF1 / Fold change vs veh, AHCTF1 / RFU, TFRC / Fold change vs veh, TFRC / RFU, ZDHHC17 / Fold change vs veh, ZDHHC17 / RFU, NOM1 / Fold change vs veh, NOM1 / RFU, ARL8B / Fold change vs veh, ARL8B / RFU, ZBTB11 / Fold change vs veh, ZBTB11 / RFU, TAMM41 / Fold change vs veh, TAMM41 / RFU, KIAA1704 /// LOC100996395 / Fold change vs veh, KIAA1704 /// LOC100996395 / RFU, ING1 / Fold change vs veh, ING1 / RFU, TRMT61B / Fold change vs veh, TRMT61B / RFU, FUBP3 / Fold change vs veh, FUBP3 / RFU, TP53 / Fold change vs veh, TP53 / RFU, TNKS2 / Fold change vs veh, TNKS2 / RFU, ZFP14 / Fold change vs veh, ZFP14 / RFU, ACTR2 / Fold change vs veh, ACTR2 / RFU, PPP3R1 / Fold change vs veh, PPP3R1 / RFU, PIK3R1 / Fold change vs veh, PIK3R1 / RFU, HNRNPA1 / Fold change vs veh, HNRNPA1 / RFU, RNF170 / Fold change vs veh, RNF170 / RFU, ZNF28 / Fold change vs veh, ZNF28 / RFU, RNGTT / Fold change vs veh, RNGTT / RFU, OGT / Fold change vs veh, OGT / RFU, BRD1 / Fold change vs veh, BRD1 / RFU, MARS / Fold change vs veh, MARS / RFU, ZNF655 / Fold change vs veh, ZNF655 / RFU, FAHD1 / Fold change vs veh, FAHD1 / RFU, BDP1 / Fold change vs veh, BDP1 / RFU, LRRCC1 / Fold change vs veh, LRRCC1 / RFU, ARID1A / Fold change vs veh, ARID1A / RFU, ZNF146 / Fold change vs veh, ZNF146 / RFU, ZNF330 / Fold change vs veh, ZNF330 / RFU, GPN3 / Fold change vs veh, GPN3 / RFU, C9orf123 / Fold change vs veh, C9orf123 / RFU, N4BP2L2 / Fold change vs veh, N4BP2L2 / RFU, ARFIP1 / Fold change vs veh, ARFIP1 / RFU, FAM179B / Fold change vs veh, FAM179B / RFU, BCL10 / Fold change vs veh, BCL10 / RFU, UHRF1BP1L / Fold change vs veh, UHRF1BP1L / RFU, BET1 / Fold change vs veh, BET1 / RFU, CNOT2 / Fold change vs veh, CNOT2 / RFU, ZNF268 / Fold change vs veh, ZNF268 / Fold change vs veh, ZNF507 / RFU, DGCR2 / Fold change vs veh, DGCR2 / RFU, WDSUB1 / Fold change vs veh, WDSUB1 / Fold change vs veh, HSP90B1 /// MIR3652 / RFU, ADSS / Fold change vs veh, ADSS / RFU, GK / Fold change vs veh, GK / RFU, ZNF148 / Fold change vs veh, ZNF148 / RFU, TAF9 / Fold change vs veh, TAF9 / RFU, SLC1A5 / Fold change vs veh, SLC1A5 / RFU, SLMO2 / Fold change vs veh, SLMO2 / RFU, ABCC4 / Fold change vs veh, ABCC4 / RFU, LOC101060439 /// RAP1B / Fold change vs veh, LOC101060439 /// RAP1B / RFU, RFX7 / Fold change vs veh, RFX7 / RFU, GTPBP10 / Fold change vs veh, GTPBP10 / RFU, CNEP1R1 / Fold change vs veh, CNEP1R1 / RFU, BIVM-ERCC5 /// ERCC5 / Fold change vs veh, BIVM-ERCC5 /// ERCC5 / RFU, ILF3 / Fold change vs veh, ILF3 / RFU 11762660_at / Fold change /veh 11762660_at / RFU VCAN (11757783_s_at) / Fold change /veh VCAN (11757783_s_at) / RFU DDX43 (11728927_at) / Fold change /veh DDX43 (11728927_at) / RFU KRT8 (11758188_x_at) / Fold change /veh KRT8 (11758188_x_at) / RFU NKD1 (11759106_at) / Fold change /veh NKD1 (11759106_at) / RFU SRD5A1 (11742802_a_at) / Fold change /veh SRD5A1 (11742802_a_at) / RFU TPSAB1 /// TPSB2 (11721975_s_at) / Fold change /veh TPSAB1 /// TPSB2 (11721975_s_at) / RFU GSTM3 (11746129_a_at) / Fold change /veh GSTM3 (11746129_a_at) / RFU IL23R (11737362_x_at) / Fold change /veh IL23R (11737362_x_at) / RFU TMEM51 (11727254_a_at) / Fold change /veh TMEM51 (11727254_a_at) / RFU PIWIL2 (11732686_x_at) / Fold change /veh PIWIL2 (11732686_x_at) / RFU ORM1 (11744905_x_at) / Fold change /veh ORM1 (11744905_x_at) / RFU CCDC152 (11743942_at) / Fold change /veh CCDC152 (11743942_at) / RFU ECM1 (11717891_a_at) / Fold change /veh ECM1 (11717891_a_at) / RFU IL23R (11748794_a_at) / Fold change /veh IL23R (11748794_a_at) / RFU TNFAIP8L3 (11732012_x_at) / Fold change /veh TNFAIP8L3 (11732012_x_at) / RFU MBOAT4 (11741988_at) / Fold change /veh MBOAT4 (11741988_at) / RFU 11764193_at / Fold change /veh 11764193_at / RFU TMEM53 (11763286_at) / Fold change /veh TMEM53 (11763286_at) / RFU MAGEB2 (11727129_at) / Fold change /veh MAGEB2 (11727129_at) / RFU TMEM200A (11744735_a_at) / Fold change /veh TMEM200A (11744735_a_at) / RFU CCDC152 (11751479_a_at) / Fold change /veh CCDC152 (11751479_a_at) / RFU FAM211A (11726209_a_at) / Fold change /veh FAM211A (11726209_a_at) / RFU RGS16 (11746705_a_at) / Fold change /veh RGS16 (11746705_a_at) / RFU VCAN (11755009_s_at) / Fold change /veh VCAN (11755009_s_at) / RFU RHOB (11743442_s_at) / Fold change /veh RHOB (11743442_s_at) / RFU RGS16 (11720943_a_at) / Fold change /veh RGS16 (11720943_a_at) / RFU RGS16 (11720944_at) / Fold change /veh RGS16 (11720944_at) / RFU, VPS4B / Fold change vs veh, VPS4B / RFU, CREB1 / Fold change vs veh, CREB1 / RFU, DNAJC13 / Fold change vs veh, DNAJC13 / RFU, GNAQ / Fold change vs veh, GNAQ / RFU, CDK5R1 / Fold change vs veh, CDK5R1 / RFU, ZRANB3 / Fold change vs veh, ZRANB3 / RFU, CUL4A / Fold change vs veh, CUL4A / RFU, CCNY / Fold change vs veh, CCNY / RFU, UFL1 / Fold change vs veh, UFL1 / RFU, COG3 / Fold change vs veh, COG3 / RFU, DIAPH2 / Fold change vs veh, DIAPH2 / RFU, SKA2 / Fold change vs veh, SKA2 / RFU, AFF3 / Fold change vs veh, AFF3 / RFU, LMF1 / Fold change vs veh, LMF1 / RFU, IPO11 / Fold change vs veh, IPO11 / RFU, DFFB / Fold change vs veh, DFFB / RFU, FOXP1 / Fold change vs veh, FOXP1 / RFU, CARD8 / Fold change vs veh, CARD8 / RFU, STRN3 / Fold change vs veh, STRN3 / RFU, ADK / Fold change vs veh, ADK / RFU, RASSF2 / Fold change vs veh, RASSF2 / RFU, WIPF1 / Fold change vs veh, WIPF1 / RFU, LARP1B / Fold change vs veh, LARP1B / RFU, RASA1 / Fold change vs veh, RASA1 / RFU, RB1 / Fold change vs veh, RB1 / RFU, PPFIA1 / Fold change vs veh, PPFIA1 / RFU, MAT2A / Fold change vs veh, MAT2A / RFU, CCT5 / Fold change vs veh, CCT5 / RFU, WDR92 / Fold change vs veh, WDR92 / RFU, CUX1 / Fold change vs veh, CUX1 / RFU, TTC7A / Fold change vs veh, TTC7A / RFU, TMEM135 / Fold change vs veh, TMEM135 / RFU, DEPTOR / Fold change vs veh, DEPTOR / RFU, CPM / Fold change vs veh, CPM / RFU, DNAJB6 / Fold change vs veh, DNAJB6 / RFU, CACNA2D3 / Fold change vs veh, CACNA2D3 / RFU, DTX4 / Fold change vs veh, DTX4 / RFU, TFCP2 / Fold change vs veh, TFCP2 / RFU, GMCL1 /// GMCL1P1 / Fold change vs veh, GMCL1 /// GMCL1P1 / RFU, AEBP2 / Fold change vs veh, AEBP2 / RFU, SNHG1 /// SNORD22 /// SNORD25 /// SNORD26 /// SNORD27 /// SNORD28 /// SNORD29 /// SNORD31 / Fold change vs veh, SNHG1 /// SNORD22 /// SNORD25 /// SNORD26 /// SNORD27 /// SNORD28 /// SNORD29 /// SNORD31 / Fold change (Aza/veh), C12orf56 (ProbeSet 11735607_a_at) / Fold change (ACY-1035/veh), C12orf56 (ProbeSet 11735607_a_at) / Fold change (Aza/veh), FGFR1OP (ProbeSet 11751329_s_at) / Fold change (ACY-1035/veh), FGFR1OP (ProbeSet 11751329_s_at) / Fold change (Aza/veh), VPS36 (ProbeSet 11739960_a_at) / Fold change (ACY-1035/veh), VPS36 (ProbeSet 11739960_a_at) / RFU SYPL1 (11715823_x_at) / Fold change /veh SYPL1 (11715823_x_at) / RFU IGFBP7 (11715501_s_at) / Fold change /veh IGFBP7 (11715501_s_at) / RFU REEP3 (11722064_at) / Fold change /veh REEP3 (11722064_at) / RFU IGLL1 (11728026_x_at) / Fold change /veh IGLL1 (11728026_x_at): dose or concentration left out as unconfirmed
# Settings: ProbeSet 11716331_a_at; LIST D
structure (smiles),measurement,value
Nc1ccc(-c2cccs2)cc1NC(=O)c1ccc2c(c1)cc(C1CC1)n2CCN1CCOCC1 [ACY-1035],"RFU, DNAJB6",348.58 RFU
